Measured values: publication PMC8682738, “Constrained peptides mimic a viral suppressor of RNA silencing” (Nucleic Acids Research, 2021)
Positions of bridges follow the written chain, without caps; N, C: chain ends. Non-standard residues stand in square brackets, D forms with d. Residues, ends and D or L forms follow the SMILES beside them. *: point of attachment. FITC = O=C1OC2(c3ccc(O)cc3Oc3cc(O)ccc32)c2ccc(NC(=S)*)cc21; S5 = C=CCCC[C@](C)(N)C(=O)O; AEEA = NCCOCCOCC(=O)O

Tests used:
[1] = CD spectroscopy, secondary structure content; type: physicochemical; details: fluorescein-labeled peptide 75 μM, 10 mM sodium phosphate pH 7.4, CDNN/PEPFIT; for Helix (α-helicity): unbound
Protocol: Spectra of fluorescein-labeled peptides were recorded with a J-715 circular dichroism spectrometer (Jasco) using a stoppered quartz cuvette (1 mm; Hellma). Peptide samples (c = 75 μM) were prepared in buffer: 10 mM disodium hydrogen phosphate, pH 7.4. For each sample, 10 CD spectra were measured between λ = 190 and 260 nm with continuous scan mode (10 mdeg sensitivity, 1.0 nm resolution, 1.0 nm bandwidth, 2 s integration time, 50 nm/min scan rate). Obtained spectra were averaged, then subtracted from a reference buffer spectrum and smoothed using a fast Fourier transform filter (FFT filter). The mean residue ellipticity (Θ) (deg·cm^2·dmol^−1·10^4) was calculated using Formula (2) and plotted against wavelength (λ) (nm). The ratio of secondary structure elements was calculated with CDNN using the PEPFIT set of reference spectra for secondary structure determination ([45],[46]):(2) where [Θ]m = mean molar ellipticity per peptide bond (degree·cm^2·dmol^−1·10^4), Θ = measured ellipticity (degree), d = optical path length (cm), cg = mass concentration (g·l^−1), MRW = mean residue weight, M = molar mass of the peptide (g·mol^−1) and N = number of peptide bonds.

proteinase K = proteinase K (Parengyodontium album, UniProt P06873); assay: Protease stability assay; type: in vitro ADME; details: proteinase K 10 μg·ml^−1, fluorescein-labeled peptide 50 μM, 10 mM Tris pH 8.0, 150 mM NaCl, room temperature, HPLC absorbance 210 nm, exponential decay fit
Protocol: Protease stability assays were performed in analogy to a previously published protocol ([47]). Stocks of fluorescein-labeled peptides were prepared to a concentration of 55.5 μM in assay buffer (10 mM Tris, pH 8.0, 150 mM NaCl) and separately stocks of proteinase K also in assay buffer (c = 100 μg·ml^−1). To begin each experiment, peptide and proteinase K stocks were mixed (final concentrations: c = 10 μg·ml^−1 proteinase K, c = 50 μM fluorescein-labeled peptide; final volume = 500 μl) and incubated at room temperature. At each time point, 50 μl of the reaction mixture was quenched by adding 100 μl of TFA/ACN/H2O (v/v/v, 1:49:49) and subsequently incubated for 2 min on ice. Following centrifugation (15 min, 13200 rpm, 4°C), samples (45 μl) were monitored by analytical HPLC using a linear gradient of 10–60% HPLC solvent B over 20 min. The amount of remaining peptide was quantified via absorbance at λ = 210 nm (intact peptide (%)) and plotted against time (t) (h). Half-life (t1/2) was calculated by fitting the data to an exponential decay using the software Prism 5.0 (GraphPad).

Sequence of proteinase K (P06873 106-384): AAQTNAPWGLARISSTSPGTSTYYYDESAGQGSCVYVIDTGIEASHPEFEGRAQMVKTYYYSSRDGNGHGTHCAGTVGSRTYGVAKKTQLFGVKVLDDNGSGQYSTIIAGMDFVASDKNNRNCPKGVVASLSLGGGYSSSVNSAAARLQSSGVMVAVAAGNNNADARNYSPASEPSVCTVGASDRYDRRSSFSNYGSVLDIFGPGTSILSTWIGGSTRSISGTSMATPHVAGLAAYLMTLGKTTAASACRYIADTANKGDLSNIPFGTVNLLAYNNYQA

Row | SMILES | Random coil [1] [%] | β-Sheet [1] [%] | β-Turn [1] [%] | Helix (α-helicity) [1] [%] | Half-life (t1/2) (proteinase K) [h]
1 | CC(C)C[C@H](NC(=O)[C@]1(C)CCCC=CCCC[C@](C)(NC(=O)[C@H](CCC(=O)O)NC(=O)[C@H](CO)NC(=O)[C@@H]2CCCN2C(=O)[C@H](CO)NC(=O)[C@H](CCCCN)NC(=O)[C@H](Cc2c[nH]cn2)NC(=O)CNC(=O)[C@H](CCCNC(=N)N)NC(=O)[C@H](CCC(=O)O)NC(=O)[C@H](CCCCN)NC(=O)[C@H](CCCNC(=N)N)NC(=O)[C@H](CC(N)=O)NC(=O)[C@]2(C)CCCC=CCCC[C@](C)(NC(=O)[C@H](CCCNC(=N)N)NC(=O)[C@H](CCC(N)=O)NC(=O)[C@H](C)NC(=O)[C@H](CCC(N)=O)NC(=O)[C@H](CCCCN)NC(=O)[C@H](CCCCN)NC(=O)COCCOCCNC(=S)Nc3ccc4c(c3)C(=O)OC43c4ccc(O)cc4Oc4cc(O)ccc43)C(=O)N[C@@H](CCCNC(=N)N)C(=O)N[C@@H](Cc3c[nH]cn3)C(=O)N[C@@H](CCCCN)C(=O)N2)C(=O)N[C@@H](CCCNC(=N)N)C(=O)N[C@@H](CCCNC(=N)N)C(=O)N[C@@H](CO)C(=O)N1)C(=O)N[C@@H](Cc1c[nH]c2ccccc12)C(=O)N[C@@H](Cc1c[nH]cn1)C(=O)N[C@@H](C)C(=O)N[C@@H](CCCNC(=N)N)C(N)=O [B2] ({FITC-AEEA}-KKQAQR[S5]RHK[S5]NRKERGHKSPSE[S5]RRS[S5]LWHAR-NH2; staple 7-11, 24-28) | 12.5 | 2.4 | 10.3 | 82.2 | 8.93
2 | CC(C)C[C@H](NC(=O)[C@H](CCCCN)NC(=O)[C@H](Cc1c[nH]cn1)NC(=O)[C@H](CCCNC(=N)N)NC(=O)[C@H](CCCCN)NC(=O)[C@H](CCCNC(=N)N)NC(=O)[C@H](CCC(N)=O)NC(=O)[C@H](C)NC(=O)[C@H](CCC(N)=O)NC(=O)[C@H](CCCCN)NC(=O)[C@H](CCCCN)NC(=O)COCCOCCNC(=S)Nc1ccc2c(c1)C(=O)OC21c2ccc(O)cc2Oc2cc(O)ccc21)C(=O)N[C@@H](CC(N)=O)C(=O)N[C@@H](CCCNC(=N)N)C(=O)N[C@@H](CCCCN)C(=O)N[C@@H](CCC(=O)O)C(=O)N[C@@H](CCCNC(=N)N)C(=O)NCC(=O)N[C@@H](Cc1c[nH]cn1)C(=O)N[C@@H](CCCCN)C(=O)N[C@@H](CO)C(=O)N1CCC[C@H]1C(=O)N[C@@H](CO)C(=O)N[C@@H](CCC(=O)O)C(=O)N[C@@]1(C)CCCC=CCCC[C@@](C)(C(=O)N[C@@H](CC(C)C)C(=O)N[C@@H](Cc2c[nH]c3ccccc23)C(=O)N[C@@H](Cc2c[nH]cn2)C(=O)N[C@@H](C)C(=O)N[C@@H](CCCNC(=N)N)C(N)=O)NC(=O)[C@H](CO)NC(=O)[C@H](CCCNC(=N)N)NC(=O)[C@H](CCCNC(=N)N)NC1=O [B] ({FITC-AEEA}-KKQAQRKRHKLNRKERGHKSPSE[S5]RRS[S5]LWHAR-NH2; staple 24-28) | 46.0 | 6.8 | 13.9 | 30.5 | 1.08
3 | CC(C)C[C@@H]1NC(=O)[C@@](C)(NC(=O)[C@H](CO)NC(=O)[C@H](CCCNC(=N)N)NC(=O)[C@H](CCCNC(=N)N)NC(=O)[C@H](CCC(N)=O)NC(=O)[C@H](CCC(=O)O)NC(=O)[C@H](CO)NC(=O)[C@@H]2CCCN2C(=O)[C@H](CO)NC(=O)[C@H](CCCCN)NC(=O)[C@H](Cc2c[nH]cn2)NC(=O)CNC(=O)[C@H](CCCNC(=N)N)NC(=O)[C@H](CCC(=O)O)NC(=O)[C@H](CCCCN)NC(=O)[C@H](CCCNC(=N)N)NC(=O)[C@H](CC(N)=O)NC(=O)[C@]2(C)CCCC=CCCC[C@](C)(NC(=O)[C@H](CCCNC(=N)N)NC(=O)[C@H](CCC(N)=O)NC(=O)[C@H](C)NC(=O)[C@H](CCC(N)=O)NC(=O)[C@H](CCCCN)NC(=O)[C@H](CCCCN)NC(=O)COCCOCCNC(=S)Nc3ccc4c(c3)C(=O)OC43c4ccc(O)cc4Oc4cc(O)ccc43)C(=O)N[C@@H](CCCNC(=N)N)C(=O)N[C@@H](Cc3c[nH]cn3)C(=O)N[C@@H](CCCCN)C(=O)N2)CCCC=CCCC[C@@](C)(C(=O)N[C@@H](CCCNC(=N)N)C(N)=O)NC(=O)[C@H](Cc2c[nH]cn2)NC(=O)[C@H](Cc2c[nH]c3ccccc23)NC1=O [C2] ({FITC-AEEA}-KKQAQR[S5]RHK[S5]NRKERGHKSPSEQRRS[S5]LWH[S5]R-NH2; staple 7-11, 28-32) | 41.6 | 3.3 | 4.2 | 61.8 | 7.33
4 | CC(C)C[C@@H]1NC(=O)[C@@](C)(NC(=O)[C@H](CO)NC(=O)[C@H](CCCNC(=N)N)NC(=O)[C@H](CCCNC(=N)N)NC(=O)[C@H](CCC(N)=O)NC(=O)[C@H](CCC(=O)O)NC(=O)[C@H](CO)NC(=O)[C@@H]2CCCN2C(=O)[C@H](CO)NC(=O)[C@H](CCCCN)NC(=O)[C@H](Cc2c[nH]cn2)NC(=O)CNC(=O)[C@H](CCCNC(=N)N)NC(=O)[C@]2(C)CCCC=CCCC[C@](C)(NC(=O)[C@H](CCCCN)NC(=O)[C@H](Cc3c[nH]cn3)NC(=O)[C@H](CCCNC(=N)N)NC(=O)[C@H](CCCCN)NC(=O)[C@H](CCCNC(=N)N)NC(=O)[C@H](CCC(N)=O)NC(=O)[C@H](C)NC(=O)[C@H](CCC(N)=O)NC(=O)[C@H](CCCCN)NC(=O)[C@H](CCCCN)NC(=O)COCCOCCNC(=S)Nc3ccc4c(c3)C(=O)OC43c4ccc(O)cc4Oc4cc(O)ccc43)C(=O)N[C@@H](CC(N)=O)C(=O)N[C@@H](CCCNC(=N)N)C(=O)N[C@@H](CCCCN)C(=O)N2)CCCC=CCCC[C@@](C)(C(=O)N[C@@H](CCCNC(=N)N)C(N)=O)NC(=O)[C@H](Cc2c[nH]cn2)NC(=O)[C@H](Cc2c[nH]c3ccccc23)NC1=O [C3] ({FITC-AEEA}-KKQAQRKRHK[S5]NRK[S5]RGHKSPSEQRRS[S5]LWH[S5]R-NH2; staple 11-15, 28-32) | 37.0 | 4.3 | 6.2 | 59.3 | 5.05
5 | CC(C)C[C@H](NC(=O)[C@H](CCCCN)NC(=O)[C@H](Cc1c[nH]cn1)NC(=O)[C@H](CCCNC(=N)N)NC(=O)[C@H](CCCCN)NC(=O)[C@H](CCCNC(=N)N)NC(=O)[C@H](CCC(N)=O)NC(=O)[C@H](C)NC(=O)[C@H](CCC(N)=O)NC(=O)[C@H](CCCCN)NC(=O)[C@H](CCCCN)NC(=O)COCCOCCNC(=S)Nc1ccc2c(c1)C(=O)OC21c2ccc(O)cc2Oc2cc(O)ccc21)C(=O)N[C@@H](CC(N)=O)C(=O)N[C@@H](CCCNC(=N)N)C(=O)N[C@@H](CCCCN)C(=O)N[C@@H](CCC(=O)O)C(=O)N[C@@H](CCCNC(=N)N)C(=O)NCC(=O)N[C@@H](Cc1c[nH]cn1)C(=O)N[C@@H](CCCCN)C(=O)N[C@@H](CO)C(=O)N1CCC[C@H]1C(=O)N[C@@H](CO)C(=O)N[C@@H](CCC(=O)O)C(=O)N[C@@H](CCC(N)=O)C(=O)N[C@@H](CCCNC(=N)N)C(=O)N[C@@H](CCCNC(=N)N)C(=O)N[C@@H](CO)C(=O)N[C@@]1(C)CCCC=CCCC[C@@](C)(C(=O)N[C@@H](CCCNC(=N)N)C(N)=O)NC(=O)[C@H](Cc2c[nH]cn2)NC(=O)[C@H](Cc2c[nH]c3ccccc23)NC(=O)[C@H](CC(C)C)NC1=O [C] ({FITC-AEEA}-KKQAQRKRHKLNRKERGHKSPSEQRRS[S5]LWH[S5]R-NH2; staple 28-32) | 63.6 | 2.8 | 7.6 | 28.4 | 1.3
